Results from patent publication US12173088B2, “Anti-microbial peptides” (priority 2018, dated 2024).
≈ marks a conversion by molar mass, not a printed value. Read-outs that look alike come from different tables or passages of the source. Peptide text beside a SMILES is read from it.

Assays:
S. aureus USA300 = assay: microbe, parasite or virus in culture; assay type: cell-based, Staphylococcus aureus
Text: The bacterial strains used include the Gram-positive strains Staphylococcus aureus USA300 LAC, S. epidermidis 1457, and Bacillus subtilis 168, as well as the Gram-negative isolates Escherichia coli K12 and Acinetobacter baumannii B2367-12. Additional, drug resistance strains include Gram-positive Enterococcus faecium V286-17 (VRE) and S. aureus M838-17 (MRSA) and Gram-negative E. coli E423-17, E. coli E416-17 (ampC), and P. aeruginosa E411-17. Bacteria were cultivated in tryptic soy broth (TSB) (BD Bioscience, MD).
(§1) The antibacterial activity of peptides was evaluated using a standard broth microdilution protocol with minor modifications as described (Mishra, et al. (2012) J. Am. Chem. Soc., 134:12426-12429). In brief, logarithmic phase bacterial cultures (i.e., optical density at 600 nm≈0.5) were diluted to OD600 0.001 and partitioned into a 96-well polystyrene microplate at 90 μL per well. After treatment with 10 μL of peptide solutions two fold diluted to various concentrations, microplates were incubated at 37° C. overnight and read on a ChroMate® 4300 Microplate Reader at 630 nm (GMI, Ramsey, MN). […] To study the influence of medium conditions on the antimicrobial activity of peptides against S. aureus USA300, up to 200 mM sodium chloride (NaCl), 2 mM of calcium chloride, 5-10% of human serum, mouse plasma, fluid, or supernatants of tissue homogenates were included into the assays.
(§2) The bacterial strains used include the Gram-positive bacteria methicillin-resistant Staphylococcus aureus USA300, Enterococcus faecium V286-17 (VRE), S. aureus M838-17 (MRSA) and Gram-negative bacteria E. coli E423-17, E416-7 (ampC), P. aeruginosa E411-17, PA01, K. pneumoniae E406-17, ATCC13883, and A. baumannii B26-16. Bacteria were cultivated in tryptic soy broth (TSB) from BD Bioscience.
(§3) The antibacterial activity of peptides was evaluated using a standard broth microdilution protocol with minor modifications (Mishra, et al. (2017) Acta Biomater., 49:316-328). In brief, logarithmic phase bacterial cultures (i.e., optical density at 600 nm≈0.5) were diluted to 0.001 OD and aliquoted 90 μL per well into a 96-well polystyrene microplate. Added 10 μL peptides per well with various concentrations, plates were incubated at 37° C., overnight. Post incubation the plates are read at 630 nm using a ChroMate® Microplate Reader (GMI). […] To study the influence of medium conditions on the antimicrobial activity of peptides against S. aureus USA300 at different pHs (6.8, 7.2, and 8.0), 150 mM sodium chloride (NaCl), 5-10% of human serum, mouse plasma, and peritoneal fluid were included into the assays.

P. aeruginosa PAO1 = assay type: cell-based, Pseudomonas aeruginosa
Description: as §1, §2, §3

E. coli ATCC 25922 = assay type: cell-based, Escherichia coli
Description: as §1, §3

K. pneumoniae ATCC 13883 = assay type: cell-based, Klebsiella pneumoniae
Description: as §1, §2, §3

[1] = system: human red blood cells (hRBCs); assay: Hemolytic assay; assay type: cell-based
Description: Briefly, human red blood cells (hRBCs) were washed three times with phosphate buffer saline (PBS) and diluted to a 2% solution (v/v). After peptide treatment, incubation at 37° C. for one hour, and centrifugation at 5000 rpm for 10 minutes, aliquots of the supernatant were carefully transferred to a fresh 96-well microplate. The amount of hemoglobin released was measured at 545 nm. The percent lysis was calculated by assuming 100% release when human blood cells were treated with 2% Triton™ X-100, and 0% release when incubated with PBS buffer. The peptide concentration that caused 50% lysis of hRBCs is defined as HL50. The cell selectivity index (CSI) was calculated as the ratio between HL50 and MIC of the corresponding peptide against a select pathogenic species.
Hemolytic assays of peptides were performed as described (Mishra, et al. (2017) Acta Biomater., 49:316-328). Briefly, human red blood cells (hRBCs) obtained from UNMC Blood Bank. The blood washed 3× with isotonic saline (0.9% NaCl) and diluted to 2% blood cells (v/v). Peptide horine and verine at various concentrations were added into the 2% blood cells and incubated at 37° C. for 1 hour. Post incubation the plates were spun at 2000 rpm for 10 minutes, aliquots of the supernatant were carefully transferred to a fresh 96-well microplate. The amount of cells lysed is proportional to the hemoglobin released and measured at 545 nm using a ChroMate® microplate reader. The percent lysis was calculated by assuming 100% release when human blood cells were treated with 1% Triton™ X-100, and 0% release when incubated with PBS. The peptide concentration that caused 50% lysis of hRBCs is defined as HL50.

SMILES | MIC S. aureus USA 300 (S. aureus USA300; USA300) [µM] | Activity against Pseudomonas aeruginosa PAO1 (P. aeruginosa PAO1) | MIC P. aeruginosa PAO1 (P. aeruginosa PAO1; PAO1) [µM] | MIC E. coli ATCC 25922 (E. coli ATCC 25922; ATCC 25922) [µM] | MIC K. pneumoniae (K. pneumoniae ATCC 13883; ATCC 13883) [µM] | HL50 [1] [µM] | MIC S. aureus USA 300 (S. aureus USA300; Table 2, peptides amidated, quantified by UV) [µM] | MIC P. aeruginosa PAO1 (P. aeruginosa PAO1; Table 2, quantified by UV) [µM] | MIC E. coli ATCC 25922 (E. coli ATCC 25922; Table 2, quantified by UV) [µM] | MIC K. pneumoniae (K. pneumoniae ATCC 13883; Table 2, quantified by UV) [µM] | HL50 ([1]; Table 2, lysis of 50% hRBCs (2% v/v)) [µM] | MIC K. pneumonia ATCC 13883 (K. pneumoniae ATCC 13883; ATCC 13883) [µM]
CC(C)C[C@H](NC(=O)[C@H](CC(C)C)NC(=O)[C@H](CCCCN)NC(=O)CNC(=O)[C@H](C)NC(=O)[C@H](CC(C)C)NC(=O)[C@H](CO)NC(=O)[C@H](CC(C)C)NC(=O)[C@H](CC(C)C)NC(=O)[C@H](CO)NC(=O)[C@H](CC(C)C)NC(=O)[C@H](CC(C)C)NC(=O)CN)C(N)=O [DFT511, GLLSLLSLAGKLL] (H-GLLSLLSLAGKLL-NH2; N-terminus assumed) | 0.78 (≈ 1.01 µg/mL) | active | 12.5 (≈ 16.2 µg/mL) | 3.1 (≈ 4.02 µg/mL) | 3.1 (≈ 4.02 µg/mL) | 14 |  |  |  |  |  | 
CC(C)C[C@H](NC(=O)[C@H](C)NC(=O)[C@H](CCCCN)NC(=O)CNC(=O)[C@H](CC(C)C)NC(=O)[C@H](CC(C)C)NC(=O)[C@H](CO)NC(=O)[C@H](CC(C)C)NC(=O)[C@H](CC(C)C)NC(=O)[C@H](CO)NC(=O)[C@H](CC(C)C)NC(=O)[C@H](CC(C)C)NC(=O)CN)C(N)=O [DFT512, GLLSLLSLLGKAL] (H-GLLSLLSLLGKAL-NH2; N-terminus assumed) | 0.78 (≈ 1.01 µg/mL) |  | >25 | 3.1 (≈ 4.02 µg/mL) | 3.1 (≈ 4.02 µg/mL) | 4 |  |  |  |  |  | 
CC(C)C[C@H](NC(=O)CN)C(=O)N[C@@H](CC(C)C)C(=O)N[C@@H](CO)C(=O)N[C@@H](CC(C)C)C(=O)N[C@@H](CC(C)C)C(=O)N[C@@H](CO)C(=O)N[C@@H](CC(C)C)C(=O)N[C@@H](CC(C)C)C(=O)NCC(=O)N[C@@H](CCCCN)C(=O)N[C@@H](CC(C)C)C(=O)N[C@@H](C)C(N)=O [DFT513, GLLSLLSLLGKLA] (H-GLLSLLSLLGKLA-NH2; N-terminus assumed) |  |  |  |  |  |  | 1.56 (≈ 2.02 µg/mL) | >25 | 1.5 to 3.1 | 12.5 to 25 | <3.1 | 
CC(C)C[C@H](NC(=O)[C@H](CC(C)C)NC(=O)[C@H](CCCCN)NC(=O)CNC(=O)[C@H](CC(C)C)NC(=O)[C@H](C)NC(=O)[C@H](CCCCN)NC(=O)[C@H](CC(C)C)NC(=O)[C@H](C)NC(=O)[C@H](CO)NC(=O)[C@H](CC(C)C)NC(=O)[C@H](CC(C)C)NC(=O)CN)C(N)=O [DFT514, GLLSALKALGKLL] (H-GLLSALKALGKLL-NH2; N-terminus assumed) | 1.56 (≈ 2.02 µg/mL) |  | >25 | 3.1 (≈ 4.02 µg/mL) | 3.1 (≈ 4.02 µg/mL) | 36 |  |  |  |  |  | 
CC[C@H](C)[C@H](NC(=O)[C@H](CCCNC(=N)N)NC(=O)[C@H](CCCNC(=N)N)NC(=O)[C@H](CCCNC(=N)N)NC(=O)[C@H](Cc1c[nH]c2ccccc12)NC(=O)[C@H](Cc1c[nH]c2ccccc12)NC(=O)[C@@H](N)Cc1c[nH]c2ccccc12)C(=O)N[C@@H](Cc1c[nH]c2ccccc12)C(N)=O [WW303, WWWRRRIW] (H-WWWRRRIW-NH2; N-terminus and C-terminus assumed) |  |  | 25 to 50 |  |  | >200 |  |  |  |  |  | >25
CC[C@H](C)[C@H](NC(=O)[C@H](CCCNC(=N)N)NC(=O)[C@H](CCCNC(=N)N)NC(=O)[C@H](CC(C)C)NC(=O)[C@H](Cc1c[nH]c2ccccc12)NC(=O)[C@H](Cc1c[nH]c2ccccc12)NC(=O)[C@@H](N)Cc1c[nH]c2ccccc12)C(=O)N[C@@H](CCCNC(=N)N)C(N)=O [WW305, WWWLRRIR] (H-WWWLRRIR-NH2; N-terminus and C-terminus assumed) |  |  | 12.5 (≈ 15.9 µg/mL) |  |  | >200 |  |  |  |  |  | >25
